The text below walks through data of patent US10611740B2, “Aryl dihydro-2H-benzo[b][1,4]oxazine sulfonamide and related compounds for use as agonists of RORγ and the treatment of disease” (Lycera Corporation, priority 2015, dated 2020).

SMILES strings stand for the structures. Bounds are passed on as bounds.

One assay addresses T1, Gal4-RORγ-LBD (Homo sapiens, UniProt P51449).
T1 construct: expressed in transfected cells; host or cells: HEK-293 cells (pcDNA3.1neo plasmid)
T1 sequence (P51449 269-508 limits assumed): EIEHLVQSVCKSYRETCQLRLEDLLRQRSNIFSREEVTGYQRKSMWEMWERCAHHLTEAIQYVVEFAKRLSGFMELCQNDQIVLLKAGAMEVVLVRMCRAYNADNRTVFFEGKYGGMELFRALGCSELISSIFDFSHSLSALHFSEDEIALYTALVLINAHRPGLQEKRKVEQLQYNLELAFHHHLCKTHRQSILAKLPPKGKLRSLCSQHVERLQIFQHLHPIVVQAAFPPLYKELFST
Put plainly: Gal4-RORγ Luciferase Reporter Assay in HEK-293T Cells. It is filed as cell-based. The note with it: HEK-293 cells, luciferase reporter, with 2 μM ursolic acid. A digest of the protocol:
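In transfected HEK-293 cells (Gal4-RORγ-LBD, Gal4-luciferase), test agents with 2 μM ursolic acid were incubated overnight at 37 °C before luminescent detection. Values are relative to the ursolic-acid-free, compound-free signal (100).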

A further assay addresses T2, RORγ-LBD (Homo sapiens, UniProt P51449).
T2 construct: made in house; host or cells: SF9 cells (baculovirus)
T2 sequence (P51449 269-508 limits assumed): T1 sequence (P51449 269-508 limits assumed)
Kind of assay: RORγ-Ligand Binding Domain (LBD) TR-FRET Assay.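 For TR-FRET Assay Max Response: 665/615 nm ratio relative to signal without ursolic acid or compound set at 100.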 It is filed as biochemical. In short, it runs like this:
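Lysate from SF9 cells expressing His-RORγ-LBD is diluted to about 3 nM final in 50 mM Tris pH 7.0 assay buffer. A biotin-tagged SRC1 LXXLL peptide goes in at 200 nM final, plus ursolic acid at 2 μM final. Test compounds carry 1% DMSO final; signal read by TR-FRET.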

As for `O=C(O)CC[C@H]1CN(S(=O)(=O)c2cccc(C(F)(F)F)c2)c2cc(-c3cc(Cl)cc(F)c3F)ccc2O1` [Compound 4AQ, (S)-3-(6-(5-chloro-2,3-difluorophenyl)-4-((3-(trifluoromethyl)phenyl)sul-fonyl)-3,4-dihydro-2H-benzo[b][1,4]oxazin-2-yl)propanoic acid], at Gal4-RORγ-LBD, the EC50 is less than 0.5 µM and the “Gal4-RORγ Assay Max Response” value is “** (The symbol “**” indicates a value in the range of greater than 90 to 150)”. At RORγ-LBD, the EC50 is less than 0.5 µM and the “TR-FRET Assay Max Response” value is “**** (The symbol “****” indicates a value greater than 200)”.
On to `COc1cc(F)c(F)c(-c2ccc3c(c2)N(S(=O)(=O)c2cccc(C(F)(F)F)c2)C[C@H](CCC(=O)O)O3)c1` [Compound 4AR, (S)-3-(6-(2,3-difluoro-5-methoxyphenyl)-4-((3-(trifluoromethyl)phenyl)sul-fonyl)-3,4-dihydro-2H-benzo[b][1,4]oxazin-2-yl)propanoic acid], for which, at Gal4-RORγ-LBD, the concentration for a half-maximal effect (EC50) is less than 0.5 µM and the “Gal4-RORγ Assay Max Response” value was “** (The symbol “**” indicates a value in the range of greater than 90 to 150)”. Further, on RORγ-LBD, the EC50 was less than 0.5 µM and the “TR-FRET Assay Max Response” value is “**** (The symbol “****” indicates a value greater than 200)”.
As to `O=C(O)CC[C@H]1CN(S(=O)(=O)c2cccc(C(F)(F)F)c2)c2cc(-c3cc(C(F)(F)F)cc(F)c3F)ccc2O1` [Compound 4AS, (S)-3-(6-(2,3-difluoro-5-(trifluoromethyl)phenyl)-4-((3-(trifluoromethyl)phenyl)-sulfonyl)-3,4-dihydro-2H-benzo[b][1,4]oxazin-2-yl)propanoic acid], on Gal4-RORγ-LBD, the concentration giving a half-maximal response (EC50) is less than 0.5 µM and the “Gal4-RORγ Assay Max Response” value is listed as “** (The symbol “**” indicates a value in the range of greater than 90 to 150)”. Moreover, on RORγ-LBD, the EC50 was less than 0.5 µM and the “TR-FRET Assay Max Response” value is “**** (The symbol “****” indicates a value greater than 200)”.
For `CN(C)c1ccnc(-c2ccc3c(c2)N(S(=O)(=O)c2cccc(C(F)(F)F)c2)C[C@H](CCC(=O)O)O3)n1` [Compound 4AU, (S)-3-(6-(4-(dimethylamino)-pyrimidin-2-yl)-4-((3-(trifluoromethyl)phenyl)-sulfonyl)-3,4-dihydro-2H-benzo[b][1,4]oxazin-2-yl)propanoic acid], at Gal4-RORγ-LBD, the EC50 fell in the range of 0.5 to 5 µM and the “Gal4-RORγ Assay Max Response” value is “** (The symbol “**” indicates a value in the range of greater than 90 to 150)”. At RORγ-LBD, the EC50 is less than 0.5 µM and the “TR-FRET Assay Max Response” value is listed as “**** (The symbol “****” indicates a value greater than 200)”.
`O=C(O)CC[C@H]1CN(S(=O)(=O)c2cccc(C(F)(F)F)c2)c2cc(-c3cc(F)cc(Cl)c3F)ccc2O1` [Compound 4AY, (S)-3-(6-(3-chloro-2,5-difluorophenyl)-4-((3-(trifluoromethyl)phenyl)-sulfonyl)-3,4-dihydro-2H-benzo[b][1,4]oxazin-2-yl)propanoic acid]: on Gal4-RORγ-LBD, the concentration giving a half-maximal response (EC50) was less than 0.5 µM and the “Gal4-RORγ Assay Max Response” value is “** (The symbol “**” indicates a value in the range of greater than 90 to 150)”. At RORγ-LBD, the EC50 is less than 0.5 µM and the “TR-FRET Assay Max Response” value was “*** (The symbol “***” indicates a value in the range of greater than 150 to 200)”.
For the compound `COc1cc(F)cc(-c2ccc3c(c2)N(S(=O)(=O)c2cccc(C(F)(F)F)c2)C[C@H](CCC(=O)O)O3)c1F` [Compound 4AZ, (S)-3-(6-(2,5-difluoro-3-methoxyphenyl)-4-((3-(trifluoromethyl)phenyl)-sulfonyl)-3,4-dihydro-2H-benzo[b][1,4]oxazin-2-yl)propanoic acid], at Gal4-RORγ-LBD, the EC50 is less than 0.5 µM and the “Gal4-RORγ Assay Max Response” value is listed as “** (The symbol “**” indicates a value in the range of greater than 90 to 150)”. Also, at RORγ-LBD, the EC50 was less than 0.5 µM and the “TR-FRET Assay Max Response” value is “**** (The symbol “****” indicates a value greater than 200)”.
As to `O=C(O)CC[C@H]1CN(S(=O)(=O)c2cccc(C(F)(F)F)c2)c2cc(-c3nccc(C(F)(F)F)n3)ccc2O1` [Compound 4B, (S)-3-(4-((3-(trifluoromethyl)-phenyl)sulfonyl)-6-(4-(trifluoromethyl)pyrimidin-2-yl)-3,4-dihydro-2H-benzo[b][1,4]oxazin-2-yl)propanoic acid], on Gal4-RORγ-LBD, the EC50 is less than 0.5 µM and the “Gal4-RORγ Assay Max Response” value is on record as “** (The symbol “**” indicates a value in the range of greater than 90 to 150)”. In addition, on RORγ-LBD, the EC50 is less than 0.5 µM and the “TR-FRET Assay Max Response” value was “*** (The symbol “***” indicates a value in the range of greater than 150 to 200)”.
As for `COc1cc(-c2ccc3c(c2)N(S(=O)(=O)c2cccc(C(F)(F)F)c2)C[C@H](CCC(=O)O)O3)ccn1` [Compound 4D, (S)-3-(6-(2-methoxypyridin-4-yl)-4-((3-(trifluoromethyl)-phenyl)sulfonyl)-3,4-dihydro-2H-benzo[b][1,4]oxazin-2-yl)propanoic acid], on Gal4-RORγ-LBD, the EC50 was 0.5 to 5 µM and the “Gal4-RORγ Assay Max Response” value is reported as “* (The symbol “*” indicates a value in the range of 25 to 90)”. Besides, at RORγ-LBD, the EC50 was less than 0.5 µM and the “TR-FRET Assay Max Response” value was “*** (The symbol “***” indicates a value in the range of greater than 150 to 200)”.
The like results for `COc1cccc(-c2ccc3c(c2)N(S(=O)(=O)c2cccc(C(F)(F)F)c2)C[C@H](CCC(=O)O)O3)n1` [Compound 4E, (S)-3-(6-(6-methoxypyridin-2-yl)-4-((3-(trifluoromethyl)-phenyl)sulfonyl)-3,4-dihydro-2H-benzo[b][1,4]oxazin-2-yl)propanoic acid] were, in that order, 0.5 to 5 µM, “** (The symbol “**” indicates a value in the range of greater than 90 to 150)”, less than 0.5 µM and “**** (The symbol “****” indicates a value greater than 200)”.
Consider `COc1ccnc(-c2ccc3c(c2)N(S(=O)(=O)c2cccc(C(F)(F)F)c2)C[C@H](CCC(=O)O)O3)c1` [Compound 4F, (S)-3-(6-(4-methoxypyridin-2-yl)-4-((3-(trifluoromethyl)-phenyl)sulfonyl)-3,4-dihydro-2H-benzo[b][1,4]oxazin-2-yl)propanoic acid], for which, on Gal4-RORγ-LBD, the EC50 is 0.5 to 5 µM and the “Gal4-RORγ Assay Max Response” value was “** (The symbol “**” indicates a value in the range of greater than 90 to 150)”. In addition, at RORγ-LBD, the EC50 is less than 0.5 µM and the “TR-FRET Assay Max Response” value was “**** (The symbol “****” indicates a value greater than 200)”.
The corresponding values for `O=C(O)CC[C@H]1CN(S(=O)(=O)c2cccc(C(F)(F)F)c2)c2cc(-c3nc(C(F)(F)F)cs3)ccc2O1` [Compound 4G, (S)-3-(4-((3-(trifluoromethyl)phenyl)sulfonyl)-6-(4-(trifluoromethyl)thiazol-2-yl)-3,4-dihydro-2H-benzo[b][1,4]oxazin-2-yl)propanoic acid] are 0.5 to 5 µM, “** (The symbol “**” indicates a value in the range of greater than 90 to 150)”, less than 0.5 µM and “**** (The symbol “****” indicates a value greater than 200)”.
For `O=C(O)CC[C@H]1CN(S(=O)(=O)c2cccc(C(F)(F)F)c2)c2cc(-c3ncc(C(F)(F)F)s3)ccc2O1` [Compound 4H, (S)-3-(4-((3-(trifluoromethyl)-phenyl)sulfonyl)-6-(5-(trifluoromethyl)thiazol-2-yl)-3,4-dihydro-2H-benzo[b][1,4]oxazin-2-yl)propanoic acid], at Gal4-RORγ-LBD, the EC50 was 0.5 to 5 µM and the “Gal4-RORγ Assay Max Response” value is on record as “* (The symbol “*” indicates a value in the range of 25 to 90)”. Besides, at RORγ-LBD, the EC50 is less than 0.5 µM and the “TR-FRET Assay Max Response” value is “*** (The symbol “***” indicates a value in the range of greater than 150 to 200)”.
As for `O=C(O)CC[C@H]1CN(S(=O)(=O)c2cccc(C(F)(F)F)c2)c2cc(-c3cccc(Cl)n3)ccc2O1` [Compound 4I, (S)-3-(6-(6-chloropyridin-2-yl)-4-((3-(trifluoromethyl)phenyl)-sulfonyl)-3,4-dihydro-2H-benzo[b][1,4]oxazin-2-yl)propanoic acid], at Gal4-RORγ-LBD, the EC50 was less than 0.5 µM and the “Gal4-RORγ Assay Max Response” value is on record as “** (The symbol “**” indicates a value in the range of greater than 90 to 150)”. Further, on RORγ-LBD, the EC50 is less than 0.5 µM and the “TR-FRET Assay Max Response” value was “*** (The symbol “***” indicates a value in the range of greater than 150 to 200)”.
As for `O=C(O)CC[C@H]1CN(S(=O)(=O)c2cccc(C(F)(F)F)c2)c2cc(-c3cccn4ccnc34)ccc2O1` [Compound 4J, (S)-3-(6-(imidazo[1,2-a]pyridin-8-yl)-4-((3-(trifluoromethyl)-phenyl)sulfonyl)-3,4-dihydro-2H-benzo[b][1,4]oxazin-2-yl)propanoic acid], on Gal4-RORγ-LBD, the EC50 fell in the range of 0.5 to 5 µM and the “Gal4-RORγ Assay Max Response” value is “** (The symbol “**” indicates a value in the range of greater than 90 to 150)”. On RORγ-LBD, the EC50 is less than 0.5 µM and the “TR-FRET Assay Max Response” value is “**** (The symbol “****” indicates a value greater than 200)”.
